{"source": "patent US11602514B2", "about": "“Medicament having anti-inflammatory bowel disease function, and preparation method therefor and application thereof” (SUZHOU PHARMAVAN CO., LTD, priority 2018, dated 2023)", "key": {"[1]": {"test_system": "mouse macrophages RAW264.7", "test": "effect on proliferation activity of mouse macrophages RAW264.7", "type": "cell-based", "conditions": "80 μM; n=3; FIG. 4"}, "[2]": {"test_system": "IL-6 secreted by mouse macrophages RAW264.7 induced by LPS", "test": "IL-6 secreted by LPS-induced RAW264.7 macrophages (ELISA)", "type": "cell-based", "conditions": "LPS 100 ng/mL, 24 h; FIG. 5", "experimental": "(§1) Effects of myricanol derivatives on the expression of inflammatory factors such as IL-6, TNF-α, PEG2 secreted by a mouse macrophage cell strain RAW 264.7 induced by bacterial lipopolysaccharide (hereinafter referred to as LPS) stimulus: A pre-prepared cell suspension was inoculated in a 96-well plate at 15000 cells/well and 100 μl/well and cultured overnight in an incubator with 5% CO2 at 37° C. At 80% cell confluence, the original culture medium was discarded, and each well was added with 100 μl of prepared drug solution to be tested with a different concentration, cultured for 1 h, and then added with a LPS solution, where the final concentration of LPS in the culture system was 100 ng/mL. Each concentration was set with 3 parallel wells, and a cell control group (no drug and no solvent) and a blank medium control group (no cells, a well for zero adjustment) were set. They were cultured for another 24 h. Cell culture supernatants were aspirated, and an R&D ELISA detection kit (M6000B; MTA00B; VAL601) was used for detecting the expression of the inflammatory factors such as IL-6, TNF-α, and PEG2 in each group. Cell proteins were collected, and a […] method was used for detecting COX-2 protein expression in each group."}, "[3]": {"test_system": "COX2 protein expressed by mouse macrophages RAW264.7", "test": "COX2 protein expression in LPS-induced RAW264.7 macrophages (blot)", "type": "cell-based", "conditions": "FIG. 8", "experimental": "as §1"}, "[4]": {"test_system": "acute IBD model induced by 5% DSS", "test": "DSS-induced mouse in vivo model of IBD", "design": "species or system C57BL/6 mice", "conditions": "tail vein 5, 2.5, 1.25 mg/kg, 4 days", "experimental": "Female SPF-grade C57BL/6 mice each with an age of 6 to 8 weeks were subjected to adaptive feeding for 3-7 days, and then fed with 5% aqueous solution of DSS in a free water-drinking manner (day0). The original aqueous solution of DSS was replaced with a fresh aqueous solution of DSS every 2 days. After the mice freely drank the aqueous solution of DSS for 7 days (day7), they were fed with fresh purified water. After 4 days of modeling, medicament was administered on the 5th day of modeling. Animals were administered via tail veins with 5 mg/kg, 2.5 mg/kg, and 1.25 mg/kg of the medicament for treatment. The animals were administered with the medicament for 4 continuous days, and then observed for 1 day. The experiments were terminated 24 h after the last administration.\nDetection indexes: the weight of each group of animals was observed and recorded every day, and feces of each animal were collected to detect occult blood in the feces. If obvious blood in the feces cannot be determined, an occult blood detection kit was used for confirming the occult blood, and the result was recorded on an experimental record paper and photographed. When the experiments ended, animal serum was collected to detect the expression of IL-6 in the blood. At the same time, the fecal traits, occult blood, and weight change rate of each animal were scored, and the scores were added to give a DAI score for the animal. Colorectal tissue samples of the animals were collected for the subsequent pathological detection and detection of MPO in the tissue."}, "[5]": {"test_system": "IBD model induced by 2.5% TNBS", "test": "TNBS-induced rat in vivo model of IBD", "design": "species or system SD rats", "conditions": "6 days; for injuries of colorectal ulcers (anatomical and pathological HE): FIGS. 20 and 21", "experimental": "Test method: female SPF-grade SD rats each with a weight of 180-200 g were subjected to adaptive feeding for 5-7 days, and then started to be modeled. At the time of modeling, the rats were anesthetized, a pre-labeled cat catheter was inserted through the anus into the colon for 8 cm, 250 μL of 2.5% (wt/vol) TNBS solution was slowly injected into the cavity of the colon, the rat was inverted for 1 min, and then the catheter was slowly removed from the intestine. The rat was hold with its head down towards for 1 min and then put back to a cage. Rats in a blank group were administered with the same volume of normal saline. On the second day of modeling, i.e., D1, the medicament was administered through intragastric administration for 6 continuous days.\nDetection indexes: the weight of each group of animals was observed and recorded every day, and feces of each animal were collected at the beginning of experiments to detect occult blood in the feces. If obvious blood in the feces cannot be determined, an occult blood detection kit was used for confirming the occult blood, and the result was recorded on an experimental record paper and photographed. After the end of the experiments, the fecal traits, occult blood, and weight change rate of each animal were scored, and the scores were added to give a DAI score for each animal. Colorectal tissue samples of the animals were collected and a wet weight was weighted for the subsequent pathological detection."}, "[6]": {"test": "acute toxicity, single oral dose", "type": "in vivo", "conditions": "both sexes, SD, rat, in vivo, po; single intragastric administration; read-out: MTD (tolerance to acute toxicity of a single dosage)", "from_the_text": "(§2) Trial method: 30 SD rats, half male and half female, were used. The average weight was 160-200 g for female rats and 180-220 g for male rats when grouped. An individual weight should be within ±20% of the average weight. Before the test, animals needed to accommodate to the environment for at least 5 days, and healthy rats (female rats should be not pregnant) were selected as test animals. Matter detected during the accommodation period mainly was: whether the rats were consistent with quality indexes required in the order; detection of general conditions; and whether the weight was within the weight range required by the test. Unqualified abnormal animals were excluded from the test. A single dosage was orally administered to rats at a low, medium, or high dose. […] A control group was set with the oral administration of the same volume of solvent.\n(§3) The rats were observed about 0-2 h and 4-6 h after each administration. If a toxicity symptom occurs, the rats may be observed more times. (2) Gross anatomical observation: on the 14th day of the test, all surviving rats in each group were dissected and observed, and for administration sites and gross dissection, abnormal organs and tissues which were observed and found to be potentially related to test samples were photographed and recorded. (3) Disposal of dying animals: status of rats and observation time were recorded, and their weights were measured. (4) Disposal of dead animals: the time of death or when a rat was found dead were recorded. The rat was measured for weight before quickly dissected for gross observation and speculated for a cause of death."}, "SD rats": {"test_system": "SD rats", "test": "acute toxicity, single oral dose", "type": "in vivo", "conditions": "single intragastric administration, 14 days observation", "from_the_text": "as §2, §3"}}, "note": "Entries after “also recorded” stand apart in the source; their conditions may differ."}
{"compound": "COc1c2cc(c(O)c1OC)CCCCC(OS(=O)(=O)O)CCc1ccc(O)c-2c1", "note": "(stereo not shown) [compound H, 11-sulfonyloxy myricanol]", "values": [{"measurement": "effect on proliferation activity of mouse macrophages RAW264.7", "setting": "[1]", "value": "no significant effects"}, {"measurement": "inhibition of LPS-induced IL-6 secretion of RAW264.7 cells", "setting": "[2]", "value": "very strong effects of inhibiting"}, {"measurement": "COX2 protein expression inhibition compared with myricanol", "setting": "[3]", "value": "better inhabitation effects than myricanol"}, {"measurement": "inhibition of protein expression of IBD-related COX2", "setting": "[3]", "value": "can inhibit"}, {"measurement": "weight change rate (weight loss trend)", "setting": "[4]; FIG. 10 (5 mg/kg vs 5% DSS p<0.01)", "value": "slowing the weight loss trend"}, {"measurement": "level of IL-6 protein in serum", "setting": "[4]; FIG. 11", "value": "significant anti-inflammatory effect"}, {"measurement": "DAI score", "setting": "[4]; FIG. 12", "value": "significant effect of reducing the DAI scores"}, {"measurement": "colorectal pathology (injuries of intestinal mucosa)", "setting": "[4]; FIG. 13", "value": "significant effect of repairing injuries of intestinal mucosa"}, {"measurement": "colorectal MPO (oxidative injuries)", "setting": "[4]; FIG. 14", "value": "a certain effect of improving oxidative injuries"}, {"measurement": "colorectal wet weight (edema)", "setting": "[5]; 12.5 mg/kg intragastric, no statistical difference, FIG. 15", "value": "trend of reducing the edema"}, {"measurement": "area of colorectal ulcers", "setting": "[5]; oral 12.5 mg/kg, FIG. 16", "value": "significantly reducing the area of colorectal ulcers"}, {"measurement": "area of colorectal ulcers, efficacy compared with 5-ASA", "setting": "[5]; oral 12.5 mg/kg, FIG. 16", "value": "slightly better efficacy than 5-aminosalicylic acid (5-ASA)"}, {"measurement": "colorectal inflammation, efficacy compared with 5-ASA", "setting": "[5]; oral 12.5 mg/kg, FIG. 17", "value": "substantially same efficacy as 5-aminosalicylic acid (5-ASA)"}, {"measurement": "inflammation score of colorectal pathological HE", "setting": "[5]; oral 12.5 mg/kg, FIG. 17, 12.5 mg/kg", "value": "significantly reducing the level of colorectal inflammation; also recorded: significantly improving the score of colorectal inflammation"}, {"measurement": "colorectal total injuries, efficacy compared with 5-ASA", "setting": "[5]; oral 12.5 mg/kg, FIG. 18", "value": "substantially same efficacy as 5-aminosalicylic acid (5-ASA)"}, {"measurement": "score of total injuries of colorectal pathological HE", "setting": "[5]; oral 12.5 mg/kg, FIG. 18, 12.5 mg/kg", "value": "significantly reducing the level of colorectal total injures; also recorded: significantly reducing the degree of overall colorectal injuries"}, {"measurement": "injury score of colorectal ulcers, efficacy compared with 5-ASA", "setting": "[5]; oral 12.5 mg/kg, FIG. 19", "value": "slightly better efficacy than 5-aminosalicylic acid (5-ASA)"}, {"measurement": "score of ulcerative injuries of colorectal pathological HE", "setting": "[5]; oral 12.5 mg/kg, FIG. 19, 12.5 mg/kg", "value": "significantly reducing the injury score of colorectal ulcers; also recorded: significantly reducing the severity of injuries"}, {"measurement": "injuries of colorectal ulcers (anatomical and pathological HE)", "setting": "[5]; oral 12.5 mg/kg", "value": "effect of reducing injuries of colorectal ulcers"}, {"measurement": "injuries of colorectal ulcers (anatomical and pathological HE)", "setting": "[5]; oral 25 mg/kg", "value": "effect of reducing injuries of colorectal ulcers"}, {"measurement": "MTD at 14 days", "setting": "[6]", "value": "> 1500", "unit": "mg/kg"}, {"measurement": "Test Endpoint (toxic side effects)", "setting": "SD rats; 100 mg/kg", "value": "No obvious toxic"}, {"measurement": "Test Endpoint (toxic side effects)", "setting": "SD rats; 300 mg/kg", "value": "No obvious toxic"}, {"measurement": "Test Endpoint (toxic side effects)", "setting": "SD rats; 1000 mg/kg", "value": "No obvious toxic"}, {"measurement": "Test Endpoint (toxic side effects)", "setting": "SD rats; 1500 mg/kg", "value": "No obvious toxic"}]}
